Source: patent publication US9981968B2, “Substituted pyrrolo[2,3-d]pyrimidines for the treatment of cancer and proliferative disorders” (Northwestern University, priority 2013, dated 2018)

Assays:
MM.1S cells = test: MTS CellTiter 96 cell proliferation assay, MM.1S; format: cell-based, human
Method: Cell viability was assessed by MTS assay as follows.
The MTS CellTiter 96 assay is a colorimetric method to assess the number of viable cells based on the conversion of a tetrazolium compound (MTS) to a formazan product by the mitochondrial dehydrogenase enzyme of the cells. This assay is used to determine the number of viable cells remaining following a drug treatment in comparison to the number of viable cells that are only treated with the drug vehicle (control cells). The amount of formazan product in the control cells is normalized to 100% and the amount of formazan in the drug treated cells is expressed as a percentage of control. This is used to generate dose response curve and estimate the drug concentration that produced a 50% decrease in the number of viable cells.

U937 cell lines = test: Immunoblot of PARP cleavage and cleaved caspase 3; format: cell-based, human; details: U937 cell lysates, FIG. 17
Method: FIG. 17. Immunoblot of cell lysates from U937 cell lines treated with Compounds 381, 383, 409 (as test compounds) and Compound 501 (as a negative control) as compared to 8-amino adenosine (8NH2-Ado) and 8-chloro adenosine (8Cl-Ado) (as positive controls). The impact of the compounds on proteins associated with cell death was assessed via performing an immunoblot. (See FIG. 17). PARP cleavage indicated activation of the caspase cascade and cell death by induction of apoptosis. Similarly detection of cleaved caspase 3 indicated activation of caspase activity and cell death by apoptosis. GAPDH was included as a loading control to indicate approximately equal loading of protein.

FC(F)(F)c1cn(CC2CCNCC2)c2ncnc(Cl)c12 [NUCC-0000381]
decreasing cell proliferation (MM.1S cells; 0.1-10 μM, MTS assay, FIG. 1, compared with 8-amino adenosine): as effective in decreasing cell proliferation as 8-amine-adenosine | IC50 (MM.1S cells; Homo sapiens, MM1.S, MTS cell proliferation assay, read-out: Estimated IC50): 600 nM | induction of apoptosis (PARP cleavage, cleaved caspase 3) (U937 cell lines): Induction of apoptosis was observed
